One experiment has as its target Histone deacetylase 1 (Homo sapiens, UniProt Q13547). Put plainly: (§1) IC50 Assay: IC50 measurements were conducted by BPS Biosciences (Table 1) or by Nanosyn (Table 1A) with an established fluorescence assay.
The next experiment has as its target T1, Histone deacetylase 11 (Homo sapiens, UniProt Q96DB2).
T1 sequence (Q96DB2 whole entry): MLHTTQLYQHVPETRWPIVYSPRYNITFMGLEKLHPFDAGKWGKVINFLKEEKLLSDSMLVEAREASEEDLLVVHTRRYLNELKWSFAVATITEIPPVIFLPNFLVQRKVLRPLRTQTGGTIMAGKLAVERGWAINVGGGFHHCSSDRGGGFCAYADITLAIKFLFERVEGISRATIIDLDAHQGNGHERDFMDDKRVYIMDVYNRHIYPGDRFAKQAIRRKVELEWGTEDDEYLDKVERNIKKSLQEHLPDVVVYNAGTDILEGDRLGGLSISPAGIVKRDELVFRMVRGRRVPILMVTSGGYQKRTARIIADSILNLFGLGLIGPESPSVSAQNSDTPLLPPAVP
The description is as §1.

The target of a further experiment is Histone deacetylase 3 (Homo sapiens, UniProt O15379). The description is as §1.
Another experiment addresses Histone deacetylase 4 (Homo sapiens, UniProt P56524). Described as §1.
In a further experiment the target is Histone deacetylase 5 (Homo sapiens, UniProt Q9UQL6). The experiment is described as §1.
In the next experiment the target is T2, Histone deacetylase 7 (Homo sapiens, UniProt Q8WUI4).
T2 sequence (Q8WUI4 whole entry): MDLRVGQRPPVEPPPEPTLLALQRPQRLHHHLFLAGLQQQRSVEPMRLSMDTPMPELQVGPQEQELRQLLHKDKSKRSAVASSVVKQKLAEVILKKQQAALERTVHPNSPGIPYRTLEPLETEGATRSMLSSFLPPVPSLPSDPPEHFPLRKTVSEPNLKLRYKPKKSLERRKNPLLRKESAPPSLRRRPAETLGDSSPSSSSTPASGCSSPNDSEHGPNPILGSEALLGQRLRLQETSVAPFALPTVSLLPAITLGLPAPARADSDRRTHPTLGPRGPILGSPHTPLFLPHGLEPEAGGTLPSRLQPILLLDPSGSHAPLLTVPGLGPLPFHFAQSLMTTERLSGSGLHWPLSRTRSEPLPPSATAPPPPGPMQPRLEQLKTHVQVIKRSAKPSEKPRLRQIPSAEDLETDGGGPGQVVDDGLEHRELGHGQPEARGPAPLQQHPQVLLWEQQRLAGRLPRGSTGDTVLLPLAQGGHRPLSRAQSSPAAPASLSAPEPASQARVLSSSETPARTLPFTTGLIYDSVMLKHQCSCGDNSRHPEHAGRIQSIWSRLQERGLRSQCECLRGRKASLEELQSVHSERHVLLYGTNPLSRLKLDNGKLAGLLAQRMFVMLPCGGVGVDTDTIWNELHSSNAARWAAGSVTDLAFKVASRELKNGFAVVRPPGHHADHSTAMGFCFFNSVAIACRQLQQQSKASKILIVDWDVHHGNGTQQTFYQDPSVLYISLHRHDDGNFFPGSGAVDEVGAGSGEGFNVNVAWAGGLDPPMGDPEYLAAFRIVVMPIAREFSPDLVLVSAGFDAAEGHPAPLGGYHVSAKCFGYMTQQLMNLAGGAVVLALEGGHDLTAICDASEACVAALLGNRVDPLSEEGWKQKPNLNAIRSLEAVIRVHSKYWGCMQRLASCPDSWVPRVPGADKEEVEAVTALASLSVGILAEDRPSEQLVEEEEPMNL
The description is as §1.

The target in another experiment is T3, Histone deacetylase 8 (Homo sapiens, UniProt Q9BY41).
T3 sequence (Q9BY41 whole entry): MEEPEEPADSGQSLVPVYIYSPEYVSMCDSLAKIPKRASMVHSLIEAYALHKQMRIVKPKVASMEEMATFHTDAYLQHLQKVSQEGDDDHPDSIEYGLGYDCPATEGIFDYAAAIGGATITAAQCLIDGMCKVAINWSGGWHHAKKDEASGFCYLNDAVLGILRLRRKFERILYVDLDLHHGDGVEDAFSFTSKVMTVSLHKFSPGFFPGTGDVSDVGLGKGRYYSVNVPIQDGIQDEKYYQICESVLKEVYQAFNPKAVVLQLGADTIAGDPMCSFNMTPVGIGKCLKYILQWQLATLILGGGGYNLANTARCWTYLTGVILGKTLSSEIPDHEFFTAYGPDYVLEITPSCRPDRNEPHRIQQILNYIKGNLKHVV
Described as §1.

A further experiment has as its target Histone deacetylase 9 (Homo sapiens, UniProt Q9UKV0). Described as §1.
Experiment [1] has as its target T4, Polyamine deacetylase HDAC10 (Homo sapiens, UniProt Q969S8).
T4 sequence (Q969S8 whole entry): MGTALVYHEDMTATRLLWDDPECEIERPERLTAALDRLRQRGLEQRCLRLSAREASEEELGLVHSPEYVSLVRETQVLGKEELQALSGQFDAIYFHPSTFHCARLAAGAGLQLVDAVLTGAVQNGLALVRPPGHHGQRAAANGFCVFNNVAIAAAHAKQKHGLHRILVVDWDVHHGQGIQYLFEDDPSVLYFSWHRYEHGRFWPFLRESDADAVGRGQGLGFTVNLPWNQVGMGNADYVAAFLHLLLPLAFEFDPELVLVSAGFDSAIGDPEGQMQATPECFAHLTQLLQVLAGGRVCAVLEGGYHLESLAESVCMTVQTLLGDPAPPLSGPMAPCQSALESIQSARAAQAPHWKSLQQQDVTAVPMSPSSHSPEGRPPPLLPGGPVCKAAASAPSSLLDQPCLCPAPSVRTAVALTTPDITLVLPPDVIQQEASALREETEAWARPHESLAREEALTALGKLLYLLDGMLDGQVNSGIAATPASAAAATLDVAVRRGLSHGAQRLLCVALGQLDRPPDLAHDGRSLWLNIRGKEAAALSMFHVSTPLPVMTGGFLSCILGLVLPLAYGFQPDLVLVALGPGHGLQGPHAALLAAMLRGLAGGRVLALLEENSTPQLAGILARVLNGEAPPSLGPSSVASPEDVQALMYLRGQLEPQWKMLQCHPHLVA
The experiment is described as §1.

In experiment [2] the target is T5, Protein deacetylase HDAC6 (Homo sapiens, UniProt Q9UBN7).
T5 sequence (Q9UBN7 whole entry): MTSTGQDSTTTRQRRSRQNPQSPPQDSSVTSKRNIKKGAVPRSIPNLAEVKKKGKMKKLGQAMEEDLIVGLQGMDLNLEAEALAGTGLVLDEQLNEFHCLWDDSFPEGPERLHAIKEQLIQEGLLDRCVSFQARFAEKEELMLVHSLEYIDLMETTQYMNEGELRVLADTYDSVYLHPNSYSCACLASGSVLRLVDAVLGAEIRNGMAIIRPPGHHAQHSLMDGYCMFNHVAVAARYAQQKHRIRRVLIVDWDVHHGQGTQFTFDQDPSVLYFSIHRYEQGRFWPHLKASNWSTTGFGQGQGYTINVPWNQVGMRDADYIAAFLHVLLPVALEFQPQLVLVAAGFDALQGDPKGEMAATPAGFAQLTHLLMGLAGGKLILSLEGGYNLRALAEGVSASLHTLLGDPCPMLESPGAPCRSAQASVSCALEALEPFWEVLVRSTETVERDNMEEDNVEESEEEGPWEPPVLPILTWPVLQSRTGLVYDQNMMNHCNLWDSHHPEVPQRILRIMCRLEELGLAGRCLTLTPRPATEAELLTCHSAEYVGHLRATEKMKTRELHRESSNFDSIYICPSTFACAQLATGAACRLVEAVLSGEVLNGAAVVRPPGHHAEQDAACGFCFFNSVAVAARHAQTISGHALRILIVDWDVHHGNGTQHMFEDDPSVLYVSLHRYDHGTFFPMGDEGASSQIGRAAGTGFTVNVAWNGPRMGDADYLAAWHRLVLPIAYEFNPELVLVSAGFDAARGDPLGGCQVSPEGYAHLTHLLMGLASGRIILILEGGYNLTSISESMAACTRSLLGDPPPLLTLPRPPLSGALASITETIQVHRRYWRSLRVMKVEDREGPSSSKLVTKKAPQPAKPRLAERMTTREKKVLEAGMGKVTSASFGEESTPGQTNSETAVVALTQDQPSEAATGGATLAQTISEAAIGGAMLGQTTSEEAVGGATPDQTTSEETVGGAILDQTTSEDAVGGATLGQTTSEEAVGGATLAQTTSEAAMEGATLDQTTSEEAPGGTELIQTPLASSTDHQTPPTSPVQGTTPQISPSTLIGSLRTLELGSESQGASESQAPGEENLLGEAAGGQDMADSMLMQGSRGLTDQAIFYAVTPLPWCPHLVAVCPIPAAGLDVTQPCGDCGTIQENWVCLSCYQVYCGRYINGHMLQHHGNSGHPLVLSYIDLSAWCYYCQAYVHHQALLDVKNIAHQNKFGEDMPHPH
The description is as §1.

These results are taken from ChEMBL document CHEMBL5728890, “HDAC6 inhibitors and imaging agents” (2021).

Usually IC50 stands for the midpoint of a concentration-inhibition curve. A higher IC50 goes with lower potency.

Histone deacetylase 4, sequence (P56524 whole entry): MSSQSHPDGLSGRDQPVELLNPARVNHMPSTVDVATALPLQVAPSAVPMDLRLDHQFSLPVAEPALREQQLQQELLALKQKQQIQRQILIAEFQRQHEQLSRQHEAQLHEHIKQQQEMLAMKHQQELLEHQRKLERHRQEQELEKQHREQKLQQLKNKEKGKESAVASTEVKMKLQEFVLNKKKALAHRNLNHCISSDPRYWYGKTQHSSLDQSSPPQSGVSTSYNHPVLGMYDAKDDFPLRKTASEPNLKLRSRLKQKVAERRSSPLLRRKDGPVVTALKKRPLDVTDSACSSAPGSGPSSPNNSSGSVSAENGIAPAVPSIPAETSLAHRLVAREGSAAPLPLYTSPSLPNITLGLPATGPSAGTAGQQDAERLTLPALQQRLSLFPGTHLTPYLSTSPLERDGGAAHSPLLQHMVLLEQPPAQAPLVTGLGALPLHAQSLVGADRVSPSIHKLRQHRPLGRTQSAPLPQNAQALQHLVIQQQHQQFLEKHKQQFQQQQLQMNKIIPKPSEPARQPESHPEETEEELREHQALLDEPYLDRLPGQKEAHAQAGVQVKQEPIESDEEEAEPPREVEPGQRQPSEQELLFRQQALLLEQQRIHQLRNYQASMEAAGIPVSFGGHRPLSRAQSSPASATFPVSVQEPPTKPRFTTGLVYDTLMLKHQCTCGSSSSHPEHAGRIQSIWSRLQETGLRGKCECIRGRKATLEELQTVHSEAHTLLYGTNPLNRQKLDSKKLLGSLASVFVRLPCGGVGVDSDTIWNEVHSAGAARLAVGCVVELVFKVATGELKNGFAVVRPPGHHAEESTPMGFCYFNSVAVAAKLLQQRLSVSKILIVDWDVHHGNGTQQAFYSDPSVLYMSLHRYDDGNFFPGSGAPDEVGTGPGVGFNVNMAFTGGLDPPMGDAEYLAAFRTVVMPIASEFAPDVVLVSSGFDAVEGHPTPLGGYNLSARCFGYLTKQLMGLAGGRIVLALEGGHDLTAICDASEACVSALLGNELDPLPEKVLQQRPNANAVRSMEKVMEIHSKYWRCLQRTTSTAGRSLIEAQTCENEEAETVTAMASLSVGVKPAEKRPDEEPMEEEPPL
Histone deacetylase 1, sequence (Q13547 whole entry): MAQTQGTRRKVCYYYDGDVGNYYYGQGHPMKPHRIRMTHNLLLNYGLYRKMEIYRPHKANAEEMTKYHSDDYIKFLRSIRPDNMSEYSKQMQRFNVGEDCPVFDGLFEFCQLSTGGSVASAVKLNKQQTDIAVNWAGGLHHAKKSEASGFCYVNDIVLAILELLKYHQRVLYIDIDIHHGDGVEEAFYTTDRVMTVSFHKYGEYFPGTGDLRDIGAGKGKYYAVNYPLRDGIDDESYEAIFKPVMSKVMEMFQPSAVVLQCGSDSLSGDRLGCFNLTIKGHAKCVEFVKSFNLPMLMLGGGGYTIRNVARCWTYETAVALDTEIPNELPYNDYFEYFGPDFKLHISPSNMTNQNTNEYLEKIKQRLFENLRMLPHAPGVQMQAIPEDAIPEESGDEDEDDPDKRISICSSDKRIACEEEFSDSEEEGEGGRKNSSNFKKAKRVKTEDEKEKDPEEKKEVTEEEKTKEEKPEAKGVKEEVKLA
Histone deacetylase 3, sequence (O15379 whole entry): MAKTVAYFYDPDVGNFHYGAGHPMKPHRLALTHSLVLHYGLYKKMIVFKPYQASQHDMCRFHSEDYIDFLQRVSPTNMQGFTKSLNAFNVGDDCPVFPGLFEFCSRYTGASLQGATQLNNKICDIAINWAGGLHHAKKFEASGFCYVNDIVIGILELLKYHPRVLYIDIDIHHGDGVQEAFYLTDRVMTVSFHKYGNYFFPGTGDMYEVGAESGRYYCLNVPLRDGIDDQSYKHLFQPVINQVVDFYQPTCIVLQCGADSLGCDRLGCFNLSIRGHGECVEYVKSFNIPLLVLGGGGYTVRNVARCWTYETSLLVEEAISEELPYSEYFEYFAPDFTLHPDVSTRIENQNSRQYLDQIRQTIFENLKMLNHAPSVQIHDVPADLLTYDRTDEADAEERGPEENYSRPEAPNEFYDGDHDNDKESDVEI
Histone deacetylase 9, sequence (Q9UKV0 whole entry): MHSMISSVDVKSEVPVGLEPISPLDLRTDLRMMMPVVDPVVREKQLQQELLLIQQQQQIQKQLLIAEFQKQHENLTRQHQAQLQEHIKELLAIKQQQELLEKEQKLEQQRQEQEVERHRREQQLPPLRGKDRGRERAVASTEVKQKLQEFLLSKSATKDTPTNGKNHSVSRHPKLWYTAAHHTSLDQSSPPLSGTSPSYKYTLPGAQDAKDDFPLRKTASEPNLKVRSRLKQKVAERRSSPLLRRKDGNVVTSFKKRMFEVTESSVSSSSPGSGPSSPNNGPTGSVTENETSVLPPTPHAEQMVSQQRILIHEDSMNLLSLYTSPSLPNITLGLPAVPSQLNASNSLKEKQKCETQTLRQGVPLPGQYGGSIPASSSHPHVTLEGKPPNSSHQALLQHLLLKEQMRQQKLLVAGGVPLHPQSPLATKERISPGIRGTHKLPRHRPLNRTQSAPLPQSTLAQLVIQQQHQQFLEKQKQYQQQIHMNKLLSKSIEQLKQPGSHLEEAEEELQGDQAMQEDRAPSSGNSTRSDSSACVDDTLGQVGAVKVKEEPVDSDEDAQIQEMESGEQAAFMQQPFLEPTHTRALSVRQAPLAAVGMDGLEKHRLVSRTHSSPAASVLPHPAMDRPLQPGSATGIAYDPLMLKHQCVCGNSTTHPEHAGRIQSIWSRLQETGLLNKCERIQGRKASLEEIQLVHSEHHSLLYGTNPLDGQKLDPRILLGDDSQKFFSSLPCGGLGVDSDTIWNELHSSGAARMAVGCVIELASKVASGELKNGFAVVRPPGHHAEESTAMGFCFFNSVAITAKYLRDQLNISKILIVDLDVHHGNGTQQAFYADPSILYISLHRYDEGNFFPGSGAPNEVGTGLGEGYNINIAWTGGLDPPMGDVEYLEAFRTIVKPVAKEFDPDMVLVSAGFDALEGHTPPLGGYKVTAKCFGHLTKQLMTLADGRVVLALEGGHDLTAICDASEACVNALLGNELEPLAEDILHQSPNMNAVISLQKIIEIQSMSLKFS
Histone deacetylase 5, sequence (Q9UQL6 whole entry): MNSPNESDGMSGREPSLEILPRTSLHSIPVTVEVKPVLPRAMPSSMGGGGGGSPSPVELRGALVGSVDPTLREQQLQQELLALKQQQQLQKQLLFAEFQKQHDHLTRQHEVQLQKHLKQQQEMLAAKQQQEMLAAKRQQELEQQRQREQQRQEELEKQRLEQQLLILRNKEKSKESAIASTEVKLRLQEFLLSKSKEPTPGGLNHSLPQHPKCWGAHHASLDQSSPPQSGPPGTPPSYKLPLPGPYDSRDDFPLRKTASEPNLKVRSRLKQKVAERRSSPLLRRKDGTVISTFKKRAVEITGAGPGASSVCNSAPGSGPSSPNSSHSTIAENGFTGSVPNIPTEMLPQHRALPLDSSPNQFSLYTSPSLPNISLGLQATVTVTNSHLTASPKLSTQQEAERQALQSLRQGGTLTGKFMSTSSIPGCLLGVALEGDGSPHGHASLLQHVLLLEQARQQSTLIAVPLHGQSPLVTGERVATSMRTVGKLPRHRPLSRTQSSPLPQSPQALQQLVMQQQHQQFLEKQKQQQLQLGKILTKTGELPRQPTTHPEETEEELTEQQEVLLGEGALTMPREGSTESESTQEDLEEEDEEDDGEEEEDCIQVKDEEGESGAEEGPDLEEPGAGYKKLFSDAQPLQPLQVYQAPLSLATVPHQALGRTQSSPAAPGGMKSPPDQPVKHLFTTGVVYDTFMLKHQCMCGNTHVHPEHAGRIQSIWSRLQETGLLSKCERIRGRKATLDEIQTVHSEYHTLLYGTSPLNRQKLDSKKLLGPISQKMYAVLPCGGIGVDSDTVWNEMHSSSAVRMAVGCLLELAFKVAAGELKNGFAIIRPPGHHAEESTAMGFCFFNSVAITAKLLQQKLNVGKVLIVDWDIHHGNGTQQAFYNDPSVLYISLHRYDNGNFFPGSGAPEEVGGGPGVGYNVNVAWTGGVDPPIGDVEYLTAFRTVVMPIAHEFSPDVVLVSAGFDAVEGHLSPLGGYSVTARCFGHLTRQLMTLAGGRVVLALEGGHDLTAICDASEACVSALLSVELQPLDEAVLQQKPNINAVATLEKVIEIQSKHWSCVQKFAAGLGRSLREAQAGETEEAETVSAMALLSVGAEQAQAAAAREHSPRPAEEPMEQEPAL

Regarding `CN(Cc1ccc(/C=C/C(=O)NO)cc1F)CC12CC3CC(CC(C3)C1)C2`, the IC50 is 17 nM against Histone deacetylase 1; above 1000 nM against Histone deacetylase 11; 23 nM on Histone deacetylase 3; above 1000 nM against Histone deacetylase 4; above 1000 nM against Histone deacetylase 5; above 1000 nM against Histone deacetylase 7. Also, the IC50 at Histone deacetylase 8 was above 1000 nM; at Histone deacetylase 9, above 1000 nM; in experiment [1], 33 nM; in [2] it was 180 nM.

Compound `O=C(CCCCCCNC(=O)c1cnc(N(c2ccccc2)c2ccccc2)nc1)NO` [RICOLINOSTAT] gave an IC50 in [1] above 1000 nM.

For the compound `CC(=O)Nc1ccc(C(=O)Nc2ccccc2N)cc1` [TACEDINALINE], the IC50 against Histone deacetylase 11 stood at 2830 nM.
